Read-outs that look alike come from different tables or passages of the source.
Experiments:
USP8 = target: T1, USP8 (Homo sapiens, UniProt P40818); assay: USP8 activity assay; assay type: biochemical; details: 400 nM Ub-AMC, 630 pM enzyme, pH8.8; pre-incubated 30 minutes at 25° C., 60 minutes at 37° C.; sigmoidal fit; read-out: USP 8
T1 construct: His tag (pFastBac-HT vector) (N); made in house; host or cells: Sf9 or High Five insect cells (baculovirus)
T1 sequence (P40818 1-1118): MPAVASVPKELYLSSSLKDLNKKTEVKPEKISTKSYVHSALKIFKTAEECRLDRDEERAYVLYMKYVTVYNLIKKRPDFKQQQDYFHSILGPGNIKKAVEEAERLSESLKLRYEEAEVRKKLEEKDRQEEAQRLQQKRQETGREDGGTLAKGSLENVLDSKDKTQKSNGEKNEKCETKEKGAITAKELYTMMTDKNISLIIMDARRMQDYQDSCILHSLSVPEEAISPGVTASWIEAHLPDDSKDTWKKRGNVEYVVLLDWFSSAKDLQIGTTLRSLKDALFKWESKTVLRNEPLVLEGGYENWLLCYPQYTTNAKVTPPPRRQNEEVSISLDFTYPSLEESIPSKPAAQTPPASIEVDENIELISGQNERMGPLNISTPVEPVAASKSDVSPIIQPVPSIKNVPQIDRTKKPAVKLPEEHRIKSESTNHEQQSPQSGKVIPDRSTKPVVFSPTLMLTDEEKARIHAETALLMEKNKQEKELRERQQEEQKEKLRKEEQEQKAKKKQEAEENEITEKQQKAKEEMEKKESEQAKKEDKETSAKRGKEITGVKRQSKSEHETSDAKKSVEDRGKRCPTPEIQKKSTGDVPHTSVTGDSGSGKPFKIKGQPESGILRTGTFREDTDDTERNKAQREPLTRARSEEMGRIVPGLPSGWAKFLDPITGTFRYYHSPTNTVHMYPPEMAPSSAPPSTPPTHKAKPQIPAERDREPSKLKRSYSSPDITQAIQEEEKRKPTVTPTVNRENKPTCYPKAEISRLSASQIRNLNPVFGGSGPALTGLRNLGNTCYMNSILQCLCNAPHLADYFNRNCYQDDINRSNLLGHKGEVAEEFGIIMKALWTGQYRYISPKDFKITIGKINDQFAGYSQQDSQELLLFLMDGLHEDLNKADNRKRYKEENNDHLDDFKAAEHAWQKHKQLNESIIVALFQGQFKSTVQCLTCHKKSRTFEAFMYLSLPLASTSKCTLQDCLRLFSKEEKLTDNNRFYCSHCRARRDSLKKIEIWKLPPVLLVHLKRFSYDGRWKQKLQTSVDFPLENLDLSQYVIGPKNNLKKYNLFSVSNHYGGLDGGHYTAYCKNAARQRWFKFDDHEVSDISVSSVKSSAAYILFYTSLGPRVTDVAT
Text: The cDNA encoding USP8 was obtained by PCR amplification from placenta mRNA. USP8 cDNA was subcloned by PCR into a baculovirus expression vector (pFastBac-HT; Invitrogen). A cDNA encoding a mutated USP8 was generated by mutagenic PCR. The corresponding protein encodes a cysteine to alanine substitution at residue 786. The sequences were ascertained by sequencing of the entire open reading frame. Bacmids encoding […] were generated following DH10bac transposition. The corresponding bacmids were transfected. into insect cells (Sf9). Viruses were recovered from culture supernatant and amplified twice. Insect cells (Sf9 or High Five; Invitrogen) were infected for 72 hours. Total cell lysates were harvested and lyzed in lysis buffer (Tris HCl 50 mM pH 7.6; 0.75 % NP40; 500 mM NaCl; 10% glycerol; 1 mM DTT; 10 mM imidazole; Protease Inhibitor Cocktail; AEBSF 20 μg.ml^−1; Aprotinin 10 μg.ml^−1). Proteins were affinity purified on metal affinity resins (Talon Metal affinity resin; BD Biosciences). Bound materials were extensively washed in wash buffer (50 mM Sodium Phosphate pH 7.0; 300 mM NaCl; 10 mM imidazole; 0.5% Triton X-100; 10% glycerol) and eluted from the resin in 250 mM imidazole-containing wash buffer. Proteins were dialyzed in dialysis buffer (Tris HCl pH 7.6 20 mM; NaCl 200 mM; DTT 1 mM; EDTA 1 mM; 10% Glycerol). Proteins purifications were analyzed on 4-12% NuPAGE (Invitrogen).
USP8 was diluted in USP buffer (50 mM Tris HCl; 0.5 mM EDTA; 5 mM DTT; 0.01% Triton X-100; Bovine Serum Albumin 0.05 mg.ml^−1 pH8.8). Compounds stocks (100 mM) were stored at −20° C. in DMSO.
Reactions were performed as duplicates in Black LJL 96 well plates (HE microplates; Molecular Devices; 20 μl final reaction volume).The substrate concentration for USP8 was 400 nM Ub-AMC (Boston Biochem). The concentrations of the enzyme (USP8) in specificity assays was 630 pM. The concentrations were determined in order to perform specificity assays under initial velocities at fixed substrate concentration. Compounds were pre-incubated with enzymes for 30 minutes at 25° C. Reactions were initiated by addition of substrate to the plates containing the enzymes (+/− compounds) diluted in assay buffer. Reactions were incubated for 60 minutes at 37° C. Reactions were stopped by adding acetic acid (100 mM final). Readings were performed on a Pherastar Fluorescent Reader (BMG). λ Emission 380 nm; λ Excitation=460 nm. Data (mean values +/− standard deviation) were analyzed as % of control (no compound) and plotted as percentage versus the Log of the compound concentration using GraphPad (Prism). Data were fitted to a sigmoidal model (variable slope).

[1] = tested on: HCT116 colon cancer cells; assay: HCT116 cell viability and proliferation assay (MTS); assay type: cell-based; details: mean of three independent experiments, read-out: HCT116 GI50 D3
Method in brief: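 HCT116 cells, 10^3 per well, treated 24 h after seeding with eight concentrations from 10 μM to 5 nM (0.5% final DMSO), in triplicate, for 72 h. Viability read by MTS reduction (2 h) at 492 nm. GI50 from sigmoidal variable-slope fit; mean of three independent experiments.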

[2] = Homo sapiens, HCT-116, 72 hours incubation

Work on `CCc1nnc2nc3c(nn12)C(=O)c1cc(OC)c(OC)cc1-3` [Example 5b/A, 1-Ethyl-6,7-dimethoxy-2,3,4,10,10a-pentaaza-cyclopenta[b]fluoren-9-one] yielded an IC50 (USP8) of 805 nM.
For `CCc1nnc2nc3c(nn12)-c1c(OC)ccc(OC)c1C3=O` [Example 6/B, 3-Ethyl-5,8-dimethoxy-1,2,3a,4,10-pentaaza-cyclopenta[b]fluoren-9-one], the IC50 (USP8) was 360 nM and the GI50 [1, 2] was 257 nM.
Compound `CCc1nnc2nc3c(nn12)-c1cc(OC)c(OC)cc1C3=O` [Example 5b/B, 3-Ethyl-6,7-dimethoxy-1,2,3a,4,10-pentaaza-cyclopenta[b]fluoren-9-one] has an IC50 (USP8) of 65 nM and a GI50 [1, 2] of 1180 nM.
For `O=C1c2ccccc2-c2nn3c(C(F)(F)F)nnc3nc21` [Example 1m/B, 3-Trifluoromethyl-1,2,3a,4,10-pentaaza-cyclopenta[b]fluoren-9-one], the IC50 (USP8) was 162 nM and the GI50 [1, 2] was 28 nM.
With `COc1cc2c(cc1OC)-c1nn3c(C)nnc3nc1C2=O` [Example 5a/B, 6,7-Dimethoxy-3-methyl-1,2,3a,4,10-pentaaza-cyclopenta[b]fluoren-9-one] the IC50 (USP8) was 46 nM and the GI50 [1, 2] was 818 nM.
`CCCc1nnc2nc3c(nn12)-c1cc(OC)c(OC)cc1C3=O` [Example 5c/B, 6,7-Dimethoxy-3-propyl-1,2,3a,4,10-pentaaza-cyclopenta[b]fluoren-9-one] showed an IC50 (USP8) of 104 nM and a GI50 [1, 2] of 594 nM.
`CC(C)c1nnc2nc3c(nn12)C(=O)c1ccccc1-3` [Example 1l/A, 1-lsopropyl-2,3,4,10,10a-pentaaza-cyclopenta[b]fluoren-9-one] was tested, and the GI50 [1, 2] was 2250 nM.
`CC(C)c1nnc2nc3c(nn12)-c1ccccc1C3=O` [Example 1l/B, 3-Isopropyl-1,2,3a,4,10-pentaaza-cyclopenta[b]fluoren-9-one] gave an IC50 (USP8) of 186 nM and a GI50 [1, 2] of 157 nM.
With `COCCOCCOCc1nnc2nc3c(nn12)C(=O)c1ccccc1-3` [Example 1n/A, 1-[2-(2-Methoxy-ethoxy)-ethoxymethyl]-2,3,4,10,10a-pentaaza-cyclopenta[b]fluoren-9-one] the IC50 (USP8) was 347 nM and the GI50 [1, 2] was 1910 nM.
“6-(7)-Chloro-1-methyl-2,3,4,10,10a-pentaaza-cyclopenta[b]fluoren-9-one [Example 3/A]” was tested, and the IC50 (USP8) was 301 nM and the GI50 ([1]; 72 hours incubation) was 361 nM.

From US20090181972A1, “Novel Inhibitors of Cysteine Proteases, the Pharmaceutical Compositions Thereof and their Therapeutic Applications” (priority 2005, published 2009)
